Reference: ChEMBL document CHEMBL4376808, “Triphenylphosphonium Analogues of Betulin and Betulinic Acid with Biological Activity: A Comprehensive Review” (J Nat Prod, 2019)

Tests used:
Assay type in all cases: functional, cell-based
MCF7 = assay: Cytotoxic activity in human MCF7 cells assessed as reduction in cell viability
A549 = assay: Cytotoxic activity in human A549 cells assessed as reduction in cell viability
HCT-116 = assay: Cytotoxic activity in human HCT116 cells assessed as reduction in cell viability

## C=C(C)[C@@H]1CC[C@]2(C(=O)O)CC[C@]3(C)[C@H](CC[C@@H]4[C@@]5(C)CC/C(=N/Nc6ccc([N+](=O)[O-])cc6[N+](=O)[O-])C(C)(C)[C@@H]5CC[C@]43C)[C@@H]12
MCF7
  IC50: 8.2 µM

## C=C(C)[C@@H]1CC[C@]2(C(=O)OCc3cn(-c4cccc(O)c4)nn3)CC[C@]3(C)[C@H](CC[C@@H]4[C@@]5(C)CCC(=O)C(C)(C)[C@@H]5CC[C@]43C)[C@@H]12
A549
  IC50: 3.7 µM

## C=C(C)[C@@H]1CC[C@]2(C(=O)O)CC[C@]3(C)[C@H](CC[C@@H]4[C@@]5(C)CC[C@H](C#CCN6CCCC6)C(C)(C)[C@@H]5CC[C@]43C)[C@@H]12
MCF7
  IC50: 5.5 µM

## C=C(C)[C@@H]1CC[C@]2(C(=O)OCc3cn(-c4ccc5c(c4)OCO5)nn3)CC[C@]3(C)[C@H](CC[C@@H]4[C@@]5(C)CCC(=O)C(C)(C)[C@@H]5CC[C@]43C)[C@@H]12
A549
  IC50: 5 µM

## C=C(C)[C@@H]1CC[C@]2(C(=O)OCc3cn(-c4ccc(O)c(C)c4)nn3)CC[C@]3(C)[C@H](CC[C@@H]4[C@@]5(C)CCC(=O)C(C)(C)[C@@H]5CC[C@]43C)[C@@H]12
HCT-116
  IC50: 3.5 µM

## C=C(C)[C@@H]1CC[C@]2(C(=O)O)CC[C@]3(C)[C@H](CC[C@@H]4[C@@]5(C)CC[C@H](OC(C)=O)C(C)(C)[C@@H]5CC[C@]43C)[C@@H]12
HCT-116
  IC50: 9.6 µM

## C=C(C)[C@@H]1CC[C@]2(C(=O)OCc3cn(-c4cccc(C(=O)O)c4)nn3)CC[C@]3(C)[C@H](CC[C@@H]4[C@@]5(C)CCC(=O)C(C)(C)[C@@H]5CC[C@]43C)[C@@H]12
HCT-116
  IC50: 4 µM
